Blank lines part the entries; values can stand above or below the compound they belong to.
Assays:
olfactory epithelium [1] = settings: for EOG response compared with quinoline: 100 µM, normalized to IBMX responses; for EOG response compared with quinoline / EOG amplitude compared with parent compound (coumarin or 4-MC): vehicle 0.01% DMSO; for EOG amplitude compared with parent compound (coumarin or 4-MC): 1, 10 and 100 µM, normalized to IBMX
Protocol: Odorant stock solutions (1 M) were prepared in DMSO. Working solutions were prepared extemporaneously by diluting stock solutions with the Ringer solution. […] The IBMX stock solution (10 mM) was also prepared in DMSO. This stock solution was diluted 100-fold with the Ringer solution to produce a working solution (100 µM) containing 0.1% DMSO.
To assess sensory responses induced by odorant stimulation of the olfactory mucosa, we recorded EOGs. […] Rats were sacrificed by CO2 exposure and decapitated. The head was hemisected and the nasal septum was carefully removed to expose the endoturbinate system of the main olfactory system. The tissue was then superfused continuously (5 mL/min) at room temperature (22–25°C) with modified Ringer buffer containing 140 mM NaCl, 5 mM KCl, 2 mM CaCl2, 2 mM MgCl2, 10 mM HEPES [4-(2-hydroxyethyl)-1-piperazineethanesulfonic acid], adjusted to pH 7.2 and to 320 mOsm.L^−1 with glucose. Odorant stimuli were applied to the turbinates using a custom-built odorant delivery system consisting of a Rheodyne six-port injection valve equipped with a 200-µL loop. This valve injects odorant into the continuous stream of the Ringer solution. The distal part of the delivery system was fixed to a micromanipulator and adjusted to produce uniform flow in the vicinity of the recording electrode. The recording electrode was an Ag/AgCl wire positioned in a disposable pipette tip filled with a conductive gel (WPI, Sarasota, USA). The reference electrode was an 8-mm diameter Ag/AgCl disk covered with conductive gel that was placed under the rat hemi-head. Electrical signals were amplified using an AC/DC differential amplifier (A-M Systems, model 3000, Phymep, Paris, France), run through a low-pass filter of 300 Hz, digitized at 100 Hz using a Digidata 1440A interface board (Axon Instruments, DIPSI Industrie, Châtillon, France) and acquired using Axoscope 10.2 software (Axon Instruments). The data were analyzed using Clampfit software (Axon Instruments). The peak amplitudes of EOG responses were measured at the maximum negative voltage deflection from baseline. The data were normalized by dividing the peak amplitude by the maximum amplitude elicited by 100 µM of IBMX, a phosphodiesterase inhibitor that activates the transduction pathway bypassing the receptor step.

mammalian ORs = tested on: mammalian ORs; set-up: method as in PMID 19261596; settings: approximately 460 mammalian ORs; cited from earlier work
[2] = In vitro metabolism of coumarin by olfactory microsomes (HPLC); type: in vitro ADME, rat
Protocol: (§1) Animals were sacrificed by decapitation. […] The resulting pellet was resuspended in homogenization buffer. Hepatic subcellular fractions were prepared as described previously.
(§2) Coumarin Quinoline Isoamyl acetate
(§3) Subcellular fraction olfactory hepatic olfactory/hepatic olfactory/hepatic
(§4) microsomes microsomes microsomes S9

[3] = In vitro metabolism of coumarin by hepatic microsomes (HPLC); type: in vitro ADME, rat; settings: liver (hepatic microsomes) incubation
Protocol: as §1, §2, §3, §4

CYPs [4] = test: Inhibition of quinoline metabolism catalyzed by olfactory microsomes; type: biochemical, rat; settings: for IC50: substrate quinoline
Protocol: as §1, §2, §3, §4

CYPs [5] = test: Inhibition of coumarin metabolite formation in olfactory microsomes; type: biochemical, rat; settings: for IC50: substrate coumarin
Protocol: as §1, §2, §3, §4

carboxylesterases = test: Inhibition of isoamyl acetate hydrolysis in the olfactory S9 fraction; type: biochemical, rat
Protocol: as §1
(§5) Reactions involving isoamyl acetate were carried out for 10 min and were terminated by heating at 80°C for 15 min. After centrifugation at 12000 g for 10 min, isoamyl acetate metabolism was assessed by quantifying the acetate in a sample volume of 100 µL using an acetic acid assay kit (Megazyme, Bray, Ireland).
as §2, §3, §4

CYP = test: Quinoline/coumarin metabolism in microsomes from OM superfused with inhibitor for 20 min; type: biochemical, rat; settings: 400 µM, superfusion 20 min
Protocol: Reactions were performed in triplicate at 37°C and were initiated by adding odorant to the mixtures after a 5-min pre-incubation period. […] Subsequently, the products were centrifuged at 12 000 g for 10 min. An aliquot of the supernatant (100 µl) was analyzed by reverse phase high performance liquid chromatography (HPLC) using a Waters HPLC system (Milford, MA, USA) equipped with a pump (model 600), an autosampler thermostat set at 10°C (model a717 plus), a photodiode array UV detector (model 996) and an Uptisphere C18-ODB column (5-µm particle size, 150×4.6 mm; Interchim, Montluçon, France). The effluent from the column was routed to an UV detector, which can scan wavelengths from 210 to 400 nm. […] The separation of coumarin and its metabolites was achieved using a solvent gradient program (at 0.6 mL/min) set at: 25% acetonitrile/75% formic acid (0.01% in water) for 10 min, a linear gradient to 80% acetonitrile for 20 min, hold at 80% acetonitrile for 10 min, and then return to the initial conditions.

olfactory epithelium [6] = test: Effect of XME inhibitors on odorant-induced EOG responses; set-up: species or system rat
Protocol: Rats were sacrificed by CO2 exposure and decapitated. […] The data were analyzed using Clampfit software (Axon Instruments).
First, two series of odorant stimulations at 2-min intervals were performed with an 8-min recovery period between each series. Under control conditions, a 2-min interval is sufficient to recover normal response amplitude. Then, the inhibitor was diluted in the Ringer buffer (final concentration 400 µM) and applied to the olfactory turbinates at a rate of 2.5 mL/min for 20 min using the Rheodyne injection valve. The preparation was rinsed for 5 min with the Ringer buffer and the epithelium was stimulated by applying odorant using the same procedures as described above. EOG responses were recorded on endoturbinate IIb. IBMX was applied at the end of each measurement series for data normalization as described above. In addition to the peak maximum amplitude, the onset slope (10% to 90%) and the fast decay slope (90% to 40%) were measured and normalized to the corresponding EOG peak amplitude.

carboxylesterase = test: Isoamyl acetate metabolism in S9 from OM superfused with inhibitor for 20 min; type: biochemical, rat; settings: 400 µM, superfusion 20 min
Protocol: To investigate the functional role of the olfactory XMEs, we recorded odorant-induced EOG responses before and after applying two phase I enzyme inhibitors, ABT and BNPP. First, we confirmed that superfusion of OM with ABT or BNPP was sufficient to inhibit CYP and carboxylesterase activities, respectively. For this purpose, the in vitro metabolism of quinoline, coumarin and isoamyl acetate was measured. All steps were performed as described previously except that the microsomal or S9 fractions were prepared from OM that had been superfused with inhibitors for 20 min. Superfusion of the OM with 400 µM of ABT or BNPP decreased the metabolism of quinoline/coumarin or isoamyl acetate, respectively, by approximately 30 to 80% (Fig. S6).
as §5

[7] = inhibitor 400 µM for 20 min, endoturbinate IIb

SMILES: Oc1cccc2cccnc12 [8-OH-Q, 8-hydroxyquinoline]
EOG response compared with quinoline (olfactory epithelium [1]): half of that elicited by quinoline

SMILES: O=c1ccc2ccc(O)cc2o1 [7-OH-C, 7-hydroxycoumarin]
EOG amplitude compared with parent compound (coumarin or 4-MC) (olfactory epithelium [1]): significantly lower than those induced by their parent compounds

SMILES: [O-][n+]1cccc2ccccc21 [Q-1-O, quinoline-1-oxide]
EOG response compared with quinoline (olfactory epithelium [1]): half of that elicited by quinoline

SMILES: O=c1cc(O)c2ccccc2o1 [4-OH-C, 4-hydroxycoumarin]
EOG amplitude compared with parent compound (coumarin or 4-MC) (olfactory epithelium [1]): significantly lower than those induced by their parent compounds | number of ORs activated (mammalian ORs): only activated one OR

rate of coumarin biotransformation ([2]; OM (olfactory microsomes) incubation): 13.3 nmol/min/mg protein | rate of coumarin biotransformation, OM versus liver incubation ([2]; OM higher than liver): 65 fold | rate of coumarin biotransformation [3]: 0.2 nmol/min/mg protein
SMILES: O=c1ccc2ccccc2o1 [coumarin]
number of ORs activated (mammalian ORs): 20

SMILES: Cc1cc(=O)oc2ccccc12 [4-MC, 4-methyl-coumarin]
EOG amplitude compared with parent compound (coumarin or 4-MC) (olfactory epithelium [1]): lower in amplitude than the responses to coumarin

SMILES: Cc1cc(=O)oc2cc(O)ccc12 [4-MU, 4-methylumbelliferone]
EOG amplitude compared with parent compound (coumarin or 4-MC) (olfactory epithelium [1]): significantly lower than those induced by their parent compounds

SMILES: CC(C)CCO [isoamyl alcohol]
EOG response amplitude, lower than that elicited by isoamyl acetate (olfactory epithelium [1]; at any concentration (1, 10, 100 µM)): approximately 60%

SMILES: Cc1cc(=O)oc2cc(O[C@@H]3O[C@H](C(=O)O)[C@@H](O)[C@H](O)[C@H]3O)ccc12 [4-MU-G, 4-methylumbelliferone-β-D-glucuronide]
EOG amplitude compared with parent compound (coumarin or 4-MC) (olfactory epithelium [1]): did not elicit any measurable EOG response

IC50 (CYPs [4]; read-out: IC50 for inhibition of quinoline-1-oxide formation): 134 µM | IC50 (CYPs [4]; read-out: IC50 for inhibition of quinoline-5,6-epoxide formation): 147 µM | IC50 (CYPs [5]; read-out: IC50 for inhibition of 3-hydroxycoumarin formation): 41 µM | IC50 (CYPs [5]; read-out: IC50 for inhibition of 6-hydroxycoumarin formation): 52 µM | IC50 (CYPs [5]; read-out: IC50 for inhibition of 7-hydroxycoumarin formation): 19 µM | decrease of metabolism of quinoline/coumarin after superfusion of the OM (CYP): 30 to 80%
SMILES: Nn1nnc2ccccc21 [ABT, 1-aminobenzotriazole]
decrease of the metabolism of quinoline (CYPs [4]; inhibitor 400 µM): approximately 80% | inhibition of coumarin metabolite formation (CYPs [5]; inhibitor 400 µM): Ninety percent | effect on isoamyl acetate hydrolysis (carboxylesterases; data not shown): no effect | effect on EOG responses to isoamyl acetate (olfactory epithelium [6]; ABT 400 µM for 20 min, endoturbinate IIb): did not affect | effect on onset and decay slopes of EOG recordings (olfactory epithelium [6]; inhibitor 400 µM for 20 min): unaffected | increase of maximum EOG amplitude elicited by coumarin (olfactory epithelium [6]; [7]): 43% | increase of maximum EOG amplitude elicited by quinoline (olfactory epithelium [6]; [7]): 32%

SMILES: CC(=O)O [acetic acid]
effect of repeated application on the OM (olfactory epithelium [1]): caused tissue damage

SMILES: O=[N+]([O-])c1ccc(OP(=O)(O)Oc2ccc([N+](=O)[O-])cc2)cc1 [BNPP, bis-p-nitro-phenylphosphate]
effect on olfactory metabolism of quinoline (CYPs [4]; data not shown): not affected | effect on coumarin metabolism (CYPs [5]; data not shown): not affected | IC50 (carboxylesterases; olfactory S9 fraction): 0.8 µM | decrease of metabolism of isoamyl acetate after superfusion of the OM (carboxylesterase): 30 to 80% | effect on EOG responses elicited by coumarin (olfactory epithelium [6]; BNPP treatment, stated in the discussion only): but not those elicited by quinoline and coumarin | effect on onset and decay slopes of EOG recordings (olfactory epithelium [6]; inhibitor 400 µM for 20 min): did not modify | increase of maximal EOG response amplitude to isoamyl acetate (olfactory epithelium [6]; [7]): 30%
